One series in a line: Plasma Half-life. The note with it: BALB/c, mouse, pH 7.4.
For a further series, the target named is TBK1 (Homo sapiens, UniProt Q9UHD2). Nature of the series: kinase Express Screen. Type of series: biochemical. How it is done: (§1) Kinase Remaining activity
(§2) Table S9. 9-ME-1 Kinase Screen
(§3) Activity of panel of human kinases following treatment with 1 µM (2R, 3S)-7. Dundee MRC-PPU Express Screen
(§4) (http://www.kinase-screen.mrc.ac.uk/services/express-screen)

The next series has as its target PKA (Homo sapiens, UniProt P17612). Nature of the series: kinase Express Screen. Type of series: biochemical. As to the method:
as §1, §2, §3, §4

The next series has as its target MARK3 (Homo sapiens, UniProt P27448). Nature of the series: kinase Express Screen. Type of series: biochemical. As to the method: as §1, §2, §3, §4
A further series concerns the target SGK1 (Homo sapiens, UniProt O00141). Nature of the series: kinase Express Screen. The series is classed as biochemical. As to the method:
as §1, §2, §3, §4

A further series concerns the target S6K1 (Homo sapiens, UniProt P23443). Nature of the series: kinase Express Screen. Type of series: biochemical. How it is done: as §1, §2, §3, §4
A further series addresses CAMK1 (Homo sapiens, UniProt Q14012). Nature of the series: kinase Express Screen. The series is classed as biochemical. How it is done:
as §1, §2, §3, §4

Another series addresses CK2 (Homo sapiens, UniProt P68400). Nature of the series: kinase Express Screen. The series is classed as biochemical. As to the method:
as §1, §2, §3, §4

The target of another series is PKCa (Homo sapiens, UniProt P17252). Nature of the series: kinase Express Screen. Type of series: biochemical. How it is done: as §1, §2, §3, §4
A further series has as its target PKBa (Homo sapiens, UniProt P31749). Nature of the series: kinase Express Screen. The series is classed as biochemical. As to the method:
as §1, §2, §3, §4

The target of another series is CHK2 (Homo sapiens, UniProt O96017). Nature of the series: kinase Express Screen. The series is classed as biochemical. How it is done:
as §1, §2, §3, §4

A further series deals with IRAK4 (Homo sapiens, UniProt Q9NWZ3). Nature of the series: kinase Express Screen. The series is classed as biochemical. How it is done: as §1, §2, §3, §4
The next series has as its target Aurora B (Homo sapiens, UniProt Q96GD4). Nature of the series: kinase Express Screen. Type of series: biochemical. How it is done: as §1, §2, §3, §4
The target of the next series is JNK1 (Homo sapiens, UniProt P45983). Nature of the series: kinase Express Screen. Type of series: biochemical. How it is done:
as §1, §2, §3, §4

For a further series, the target named is PAK4 (Homo sapiens, UniProt O96013). Nature of the series: kinase Express Screen. The series is classed as biochemical. As to the method:
as §1, §2, §3, §4

The target of a further series is EPH-A2 (Homo sapiens, UniProt P29317). Nature of the series: kinase Express Screen. Type of series: biochemical. As to the method:
as §1, §2, §3, §4

The target in a further series is RIPK2 (Homo sapiens, UniProt O43353). Nature of the series: kinase Express Screen. The series is classed as biochemical. As to the method: as §1, §2, §3, §4
The next series concerns the target RSK1 (Homo sapiens, UniProt Q15418). Nature of the series: kinase Express Screen. Type of series: biochemical. As to the method:
as §1, §2, §3, §4

A further series addresses NEK6 (Homo sapiens, UniProt Q9HC98). Nature of the series: kinase Express Screen. Type of series: biochemical. As to the method:
as §1, §2, §3, §4

The next series has as its target MST2 (Homo sapiens, UniProt Q13188). Nature of the series: kinase Express Screen. Type of series: biochemical. As to the method: as §1, §2, §3, §4
A further series concerns the target TAK1 (Homo sapiens, UniProt O43318). Nature of the series: kinase Express Screen. The series is classed as biochemical. As to the method:
as §1, §2, §3, §4

The next series addresses PIM1 (Homo sapiens, UniProt P11309). Nature of the series: kinase Express Screen. The series is classed as biochemical. As to the method:
as §1, §2, §3, §4

In the next series the target is AMPK (hum) (Homo sapiens, UniProt Q13131). Nature of the series: kinase Express Screen. Type of series: biochemical. How it is done:
as §1, §2, §3, §4

A further series deals with SRPK1 (Homo sapiens, UniProt Q96SB4). Nature of the series: kinase Express Screen. The series is classed as biochemical. How it is done: as §1, §2, §3, §4
The next series has as its target DYRK1A (Homo sapiens, UniProt Q13627). Nature of the series: kinase Express Screen. The series is classed as biochemical. As to the method:
as §1, §2, §3, §4

Another series has as its target ROCK 2 (Homo sapiens, UniProt O75116). Nature of the series: kinase Express Screen. The series is classed as biochemical. As to the method:
as §1, §2, §3, §4

For another series, the target named is Lck (Homo sapiens, UniProt P06239). Nature of the series: kinase Express Screen. The series is classed as biochemical. How it is done:
as §1, §2, §3, §4

The next series deals with MKK1 (Homo sapiens, UniProt Q02750). Nature of the series: kinase Express Screen. The series is classed as biochemical. How it is done:
as §1, §2, §3, §4

A further series has as its target SmMLCK (Homo sapiens, UniProt Q15746). Nature of the series: kinase Express Screen. Type of series: biochemical. How it is done:
as §1, §2, §3, §4

Another series has as its target PLK1 (Homo sapiens, UniProt P53350). Nature of the series: kinase Express Screen. The series is classed as biochemical. As to the method: as §1, §2, §3, §4
The target in the next series is CAMKKb (Homo sapiens, UniProt Q96RR4). Nature of the series: kinase Express Screen. The series is classed as biochemical. How it is done: as §1, §2, §3, §4
The target of another series is Src (Homo sapiens, UniProt P12931). Nature of the series: kinase Express Screen. The series is classed as biochemical. As to the method:
as §1, §2, §3, §4

The target of the next series is TrkA (Homo sapiens, UniProt P04629). Nature of the series: kinase Express Screen. The series is classed as biochemical. As to the method:
as §1, §2, §3, §4

A further series has as its target MLK3 (Homo sapiens, UniProt Q16584). Nature of the series: kinase Express Screen. The series is classed as biochemical. As to the method: as §1, §2, §3, §4
The next series concerns the target BTK (Homo sapiens, UniProt Q06187). Nature of the series: kinase Express Screen. Type of series: biochemical. How it is done: as §1, §2, §3, §4
The target in a further series is MSK1 (Homo sapiens, UniProt O75582). Nature of the series: kinase Express Screen. Type of series: biochemical. As to the method: as §1, §2, §3, §4
The target in the next series is VEG-FR (Homo sapiens, UniProt P17948). Nature of the series: kinase Express Screen. The series is classed as biochemical. How it is done: as §1, §2, §3, §4
The next series addresses IGF-1R (Homo sapiens, UniProt P08069). Nature of the series: kinase Express Screen. Type of series: biochemical. How it is done:
as §1, §2, §3, §4

The next series has as its target HIPK2 (Homo sapiens, UniProt Q9H2X6). Nature of the series: kinase Express Screen. The series is classed as biochemical. How it is done:
as §1, §2, §3, §4

The target of another series is EF2K (Homo sapiens, UniProt O00418). Nature of the series: kinase Express Screen. The series is classed as biochemical. How it is done:
as §1, §2, §3, §4

For the next series, the target named is CK1δ (Homo sapiens, UniProt P48730). Nature of the series: kinase Express Screen. Type of series: biochemical. As to the method: as §1, §2, §3, §4
Another series concerns the target PRK2 (Homo sapiens, UniProt Q16513). Nature of the series: kinase Express Screen. Type of series: biochemical. As to the method: as §1, §2, §3, §4
The target in the next series is JAK3 (Homo sapiens, UniProt P52333). Nature of the series: kinase Express Screen. Type of series: biochemical. As to the method: as §1, §2, §3, §4
The next series has as its target PKD1 (Homo sapiens, UniProt Q15139). Nature of the series: kinase Express Screen. The series is classed as biochemical. How it is done: as §1, §2, §3, §4
Another series has as its target SYK (Homo sapiens, UniProt P43405). Nature of the series: kinase Express Screen. The series is classed as biochemical. As to the method:
as §1, §2, §3, §4

PAK4, sequence (O96013 whole entry): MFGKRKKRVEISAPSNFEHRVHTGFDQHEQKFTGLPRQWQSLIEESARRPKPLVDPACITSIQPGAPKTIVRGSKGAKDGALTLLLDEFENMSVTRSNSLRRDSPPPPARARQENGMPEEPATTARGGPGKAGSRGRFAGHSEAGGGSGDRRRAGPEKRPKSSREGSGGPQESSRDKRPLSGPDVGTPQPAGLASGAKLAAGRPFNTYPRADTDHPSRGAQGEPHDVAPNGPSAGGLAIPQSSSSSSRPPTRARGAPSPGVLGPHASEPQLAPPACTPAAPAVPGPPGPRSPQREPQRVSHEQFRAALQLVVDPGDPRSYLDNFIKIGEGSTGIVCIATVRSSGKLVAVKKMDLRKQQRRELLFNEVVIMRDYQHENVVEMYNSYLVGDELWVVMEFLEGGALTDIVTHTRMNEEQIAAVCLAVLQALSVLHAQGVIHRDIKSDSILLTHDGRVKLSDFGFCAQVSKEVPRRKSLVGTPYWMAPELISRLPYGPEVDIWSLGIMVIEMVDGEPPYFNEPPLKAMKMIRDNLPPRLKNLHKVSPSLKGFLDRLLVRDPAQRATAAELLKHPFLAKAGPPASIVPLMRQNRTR
JNK1, sequence (P45983 whole entry): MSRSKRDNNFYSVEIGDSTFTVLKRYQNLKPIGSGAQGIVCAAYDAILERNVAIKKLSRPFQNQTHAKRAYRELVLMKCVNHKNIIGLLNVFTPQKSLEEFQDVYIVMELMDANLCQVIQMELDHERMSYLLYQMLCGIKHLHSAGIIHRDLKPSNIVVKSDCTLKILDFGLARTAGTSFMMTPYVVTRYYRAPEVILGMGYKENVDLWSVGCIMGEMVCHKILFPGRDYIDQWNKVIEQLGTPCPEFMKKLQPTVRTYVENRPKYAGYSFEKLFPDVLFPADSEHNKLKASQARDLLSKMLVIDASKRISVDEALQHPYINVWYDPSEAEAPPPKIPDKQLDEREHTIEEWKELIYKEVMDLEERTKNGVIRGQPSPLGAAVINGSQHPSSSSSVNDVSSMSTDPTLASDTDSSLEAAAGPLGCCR
IRAK4, sequence (Q9NWZ3 whole entry): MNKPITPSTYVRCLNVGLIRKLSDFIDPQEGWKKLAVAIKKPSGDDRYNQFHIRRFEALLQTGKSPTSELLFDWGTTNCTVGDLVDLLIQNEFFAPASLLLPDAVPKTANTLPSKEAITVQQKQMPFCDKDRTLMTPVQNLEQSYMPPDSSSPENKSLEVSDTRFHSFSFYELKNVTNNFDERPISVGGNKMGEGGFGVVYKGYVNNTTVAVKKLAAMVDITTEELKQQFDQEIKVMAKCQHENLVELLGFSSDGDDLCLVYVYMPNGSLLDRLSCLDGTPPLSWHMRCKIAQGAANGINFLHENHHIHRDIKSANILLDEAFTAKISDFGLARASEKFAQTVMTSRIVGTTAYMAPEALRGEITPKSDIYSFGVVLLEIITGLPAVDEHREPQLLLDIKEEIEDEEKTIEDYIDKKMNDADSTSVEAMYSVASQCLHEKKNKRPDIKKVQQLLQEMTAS
CAMK1, sequence (Q14012 whole entry): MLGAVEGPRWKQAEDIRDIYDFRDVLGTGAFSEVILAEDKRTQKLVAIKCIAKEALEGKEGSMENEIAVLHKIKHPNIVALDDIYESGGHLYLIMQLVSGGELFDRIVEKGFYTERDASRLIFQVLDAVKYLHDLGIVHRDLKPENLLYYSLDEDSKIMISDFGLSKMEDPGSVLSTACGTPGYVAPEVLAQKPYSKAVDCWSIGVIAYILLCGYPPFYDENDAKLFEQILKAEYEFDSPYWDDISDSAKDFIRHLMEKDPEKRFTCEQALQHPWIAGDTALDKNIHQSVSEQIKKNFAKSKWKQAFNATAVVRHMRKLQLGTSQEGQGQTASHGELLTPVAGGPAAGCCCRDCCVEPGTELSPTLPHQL
MLK3, sequence (Q16584 whole entry): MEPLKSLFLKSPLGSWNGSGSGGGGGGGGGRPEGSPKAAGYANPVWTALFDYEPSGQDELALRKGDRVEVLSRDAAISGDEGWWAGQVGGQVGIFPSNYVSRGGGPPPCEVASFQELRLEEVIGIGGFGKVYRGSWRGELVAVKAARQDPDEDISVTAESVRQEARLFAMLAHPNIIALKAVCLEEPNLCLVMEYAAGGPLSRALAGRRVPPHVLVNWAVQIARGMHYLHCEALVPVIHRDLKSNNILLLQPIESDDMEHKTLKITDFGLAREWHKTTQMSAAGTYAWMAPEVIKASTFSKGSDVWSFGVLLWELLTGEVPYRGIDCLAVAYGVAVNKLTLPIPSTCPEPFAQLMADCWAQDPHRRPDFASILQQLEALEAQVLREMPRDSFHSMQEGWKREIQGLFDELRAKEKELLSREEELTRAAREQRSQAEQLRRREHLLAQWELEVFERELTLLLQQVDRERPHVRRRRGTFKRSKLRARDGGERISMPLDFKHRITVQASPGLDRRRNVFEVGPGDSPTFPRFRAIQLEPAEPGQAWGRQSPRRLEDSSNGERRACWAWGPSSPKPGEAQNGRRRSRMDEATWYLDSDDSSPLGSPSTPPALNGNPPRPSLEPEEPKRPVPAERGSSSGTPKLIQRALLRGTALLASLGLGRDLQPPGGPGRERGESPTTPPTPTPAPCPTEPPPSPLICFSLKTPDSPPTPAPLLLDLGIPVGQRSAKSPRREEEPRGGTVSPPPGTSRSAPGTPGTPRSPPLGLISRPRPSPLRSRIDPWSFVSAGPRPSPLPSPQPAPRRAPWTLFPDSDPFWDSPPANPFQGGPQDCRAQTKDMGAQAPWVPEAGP
RSK1, sequence (Q15418 whole entry): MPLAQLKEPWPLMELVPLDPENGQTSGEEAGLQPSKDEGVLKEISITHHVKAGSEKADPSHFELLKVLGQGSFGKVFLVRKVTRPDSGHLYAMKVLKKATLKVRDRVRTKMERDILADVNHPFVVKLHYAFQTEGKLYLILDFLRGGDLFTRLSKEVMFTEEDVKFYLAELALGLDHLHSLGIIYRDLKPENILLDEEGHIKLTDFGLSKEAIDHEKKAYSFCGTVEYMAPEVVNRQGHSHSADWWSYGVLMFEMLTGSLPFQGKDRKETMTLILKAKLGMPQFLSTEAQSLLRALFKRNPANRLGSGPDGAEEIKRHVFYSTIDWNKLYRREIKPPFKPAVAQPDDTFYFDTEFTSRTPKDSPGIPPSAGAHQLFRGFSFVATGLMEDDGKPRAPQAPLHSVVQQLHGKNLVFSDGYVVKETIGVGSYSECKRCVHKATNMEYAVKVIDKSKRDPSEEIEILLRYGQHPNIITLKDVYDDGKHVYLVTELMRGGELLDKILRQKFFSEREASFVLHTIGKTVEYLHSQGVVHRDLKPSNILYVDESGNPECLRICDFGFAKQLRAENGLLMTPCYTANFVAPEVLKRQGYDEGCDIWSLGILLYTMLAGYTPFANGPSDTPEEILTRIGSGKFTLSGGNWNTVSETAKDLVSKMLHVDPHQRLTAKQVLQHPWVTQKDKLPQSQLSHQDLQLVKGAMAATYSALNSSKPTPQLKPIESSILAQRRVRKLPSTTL
SGK1, sequence (O00141 whole entry): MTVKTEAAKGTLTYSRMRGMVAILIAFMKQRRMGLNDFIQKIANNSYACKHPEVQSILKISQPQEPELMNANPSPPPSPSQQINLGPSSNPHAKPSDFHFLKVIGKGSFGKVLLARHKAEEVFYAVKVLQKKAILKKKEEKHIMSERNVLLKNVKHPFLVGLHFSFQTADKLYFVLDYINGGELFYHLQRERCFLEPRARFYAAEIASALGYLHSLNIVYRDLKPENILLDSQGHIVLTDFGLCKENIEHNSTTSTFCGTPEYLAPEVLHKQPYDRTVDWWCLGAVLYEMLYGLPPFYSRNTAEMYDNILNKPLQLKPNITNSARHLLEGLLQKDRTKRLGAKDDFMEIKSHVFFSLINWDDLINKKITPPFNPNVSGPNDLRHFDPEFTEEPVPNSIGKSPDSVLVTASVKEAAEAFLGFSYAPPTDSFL
PLK1, sequence (P53350 whole entry): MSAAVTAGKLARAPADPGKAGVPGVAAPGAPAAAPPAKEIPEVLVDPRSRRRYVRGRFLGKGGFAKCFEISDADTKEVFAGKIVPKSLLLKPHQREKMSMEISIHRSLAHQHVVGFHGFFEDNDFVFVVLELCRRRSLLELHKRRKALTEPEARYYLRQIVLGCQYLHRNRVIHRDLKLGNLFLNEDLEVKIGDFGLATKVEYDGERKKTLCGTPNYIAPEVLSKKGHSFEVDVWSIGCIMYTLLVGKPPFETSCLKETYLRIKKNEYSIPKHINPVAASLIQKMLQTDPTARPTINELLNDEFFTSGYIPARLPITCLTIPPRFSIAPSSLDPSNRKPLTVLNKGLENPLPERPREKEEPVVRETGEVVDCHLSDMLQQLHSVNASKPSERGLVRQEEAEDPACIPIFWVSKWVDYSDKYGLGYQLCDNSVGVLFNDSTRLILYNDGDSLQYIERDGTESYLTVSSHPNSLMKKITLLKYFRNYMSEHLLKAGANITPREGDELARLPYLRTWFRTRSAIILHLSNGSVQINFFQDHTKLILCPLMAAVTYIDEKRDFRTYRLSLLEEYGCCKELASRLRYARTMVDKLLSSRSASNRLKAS
Src, sequence (P12931 whole entry): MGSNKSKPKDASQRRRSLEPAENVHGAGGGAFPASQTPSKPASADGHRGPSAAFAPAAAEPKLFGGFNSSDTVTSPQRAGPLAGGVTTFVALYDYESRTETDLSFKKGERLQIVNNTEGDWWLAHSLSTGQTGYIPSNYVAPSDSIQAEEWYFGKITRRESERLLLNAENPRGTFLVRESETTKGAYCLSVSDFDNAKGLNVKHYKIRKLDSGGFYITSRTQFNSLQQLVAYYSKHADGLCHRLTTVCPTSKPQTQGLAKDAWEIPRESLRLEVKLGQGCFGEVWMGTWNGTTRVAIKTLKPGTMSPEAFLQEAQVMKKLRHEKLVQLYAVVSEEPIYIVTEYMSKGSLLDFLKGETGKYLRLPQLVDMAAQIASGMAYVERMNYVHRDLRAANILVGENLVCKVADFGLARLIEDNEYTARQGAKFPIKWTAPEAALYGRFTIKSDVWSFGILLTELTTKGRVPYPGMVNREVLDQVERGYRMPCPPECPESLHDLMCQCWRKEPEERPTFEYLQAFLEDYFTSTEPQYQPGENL

In the case of `CC[C@@H](C(=O)OC)[C@@H]1N=C(c2ccc(Cl)cc2)c2ccc(OC)cc2-n2c(C)nnc21` (racemic) [Compound 8], in “Plasma Half-life”, the half-life (as a rule, the time in which the quantity being followed falls by half) at 50 µM was greater than 3 h.
On to `COC(=O)[C@H](C)[C@@H]1N=C(c2ccc(Cl)cc2)c2ccc(OC)cc2-n2c(C)nnc21` [(2R,3S)-7], for which the remaining activity (usually the signal under treatment as a percentage of the control signal) at 1 µM at TBK1 was found to be 98%; at PKA it was 92%; at MARK3 it was 94%; at SGK1, 103%; on S6K1, 93%; at CAMK1, 94%. For the same molecule, the remaining activity at 1 µM at CK2 was 97%; on PKCa it was 96%; at PKBa it was 95%; at CHK2, 107%; at IRAK4, 114%; at Aurora B it was 94%. Moreover, the remaining activity at 1 µM at JNK1 is 89%; on PAK4, 104%; on EPH-A2, 86%; on RIPK2, 103%; at RSK1 it was 99%; on NEK6 it was 109%. Further, the remaining activity at 1 µM was found to be 118% on MST2; 108% on TAK1; 106% on PIM1; 104% on AMPK (hum); 79% at SRPK1; 80% on DYRK1A. The remaining activity at 1 µM on ROCK 2 was 88%; on Lck, 86%; on MKK1 it was 89%; at SmMLCK, 112%; on PLK1 it was 89%; on CAMKKb, 101%. The remaining activity at 1 µM on Src came out at 82%; at TrkA it was 98%; on MLK3, 100%; on BTK, 96%; at MSK1, 94%; on VEG-FR, 89%. Also, the remaining activity at 1 µM is 93% at IGF-1R; 99% on HIPK2; 97% at EF2K; 93% at CK1δ; 100% at PRK2; 95% on JAK3. The remaining activity at 1 µM amounted to 78% at PKD1 and 98% at SYK.

Source of the values: PMC5909127, “Optimization of a “bump-and-hole” approach to allele-selective BET bromodomain inhibition” (Chemical Science, 2018).
